# Data published in patent publication US5190922A (priority 1991, dated 1993).
# Non-standard residues stand in square brackets, D forms with d. Residues, ends and D or L forms follow the SMILES beside them. ξ: configuration not given here. *: point of attachment. X10 = N=C(N)NCCCCN(C[C@H](CC1CCCCC1)N*)C(=O)Cc1ccccc1; NHCH2(2-pyridyl) = c1ccc(CN*)nc1; NMeF = CN[C@@H](Cc1ccccc1)C(=O)O; PhLac = O=C(O)[C@@H](O)Cc1ccccc1; Cha = N[C@@H](CC1CCCCC1)C(=O)O; dCha = N[C@H](CC1CCCCC1)C(=O)O; ξCha = NC(CC1CCCCC1)C(=O)O; 4Amb = NCc1ccc(C(=O)O)cc1; X8 = c1ccc(C2(CN*)CC2)cc1; X4 = NCCCN(CCc1ccccc1)*; NH(CH2)5NH2 = NCCCCCN*; Bz = O=C(c1ccccc1)*; OBn = c1ccc(CO*)cc1; X5 = c1ccc(NN*)cc1; X3 = N=C(N)NCCCN*; X1 = N#CCCN*
# Target: T1, C5a Receptor (Homo sapiens, UniProt P21730)
# T1 construct: 2.5-25 μg/mL of purified PMNL membrane fragments; from tissue; host or cells: polymorphonuclear leukocyte (PMNL) membrane fragments
# T1 sequence (P21730 1-350): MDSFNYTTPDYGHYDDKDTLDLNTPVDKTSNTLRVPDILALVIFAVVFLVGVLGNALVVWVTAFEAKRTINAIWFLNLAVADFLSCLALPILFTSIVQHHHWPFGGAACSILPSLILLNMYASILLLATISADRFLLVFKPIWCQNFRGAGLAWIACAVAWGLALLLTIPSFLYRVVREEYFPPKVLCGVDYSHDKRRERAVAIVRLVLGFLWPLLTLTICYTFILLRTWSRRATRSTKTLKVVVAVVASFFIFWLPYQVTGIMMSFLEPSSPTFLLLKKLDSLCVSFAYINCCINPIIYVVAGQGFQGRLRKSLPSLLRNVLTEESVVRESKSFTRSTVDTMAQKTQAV
# Assay: Anaphylatoxin receptor binding Ki determination (inhibition of 125I-C5a binding to PMNL membrane fragments)
# Conditions: not given
# Protocol: Specific inhibition of C5 a binding activity of representative compounds of the present invention was measured using 0.03-1 nM ^125 I-C5 a with 2.5-25 μg/mL of purified PMNL membrane fragments (Borregaard, N.; Heiple, J. M.; Simons, E. R.; and Clark, R. A. J. Cell. Biol. 1983, 97, 52-61.). Free and membrane-bound ligand were separated by filtration.
row,Structure (SMILES),Ki
1,"CN[C@@H](Cc1ccccc1)C(=O)N[C@@H](CCCCN)C(=O)N1CCC[C@H]1C(=O)N[C@H](CC1CCCCC1)C(=O)N[C@@H](CC1CCCCC1)C(=O)NNc1ccccc1 [Example 163, (N-Methyl)Phenylalanyl-Lysyl-Prolyl-{(2R)-2-Amino-3-cyclohexylpropanoyl}-{(2S)-2-Amino-3-cyclohexylpropanoyl}-N-(N'-Phenyl)hydrazide] (H-[NMeF]KP[dCha][Cha]-X5)",140 nM
2,"N=C(N)NCCC[C@@H](NC(=O)[C@H](CC1CCCCC1)NC(=O)[C@@H](CC1CCCCC1)NC(=O)[C@@H]1CCCN1C(=O)[C@H](CCCCN)NC(=O)c1ccccc1)C(=O)O [Example 82, N-Benzoyl-Lysyl-Prolyl-{(2R)-2-Amino-3-cyclohexylpropanoyl}-{(2S)-2-Amino-3-cyclohexylpropanoyl}-DArginyl-OH] (Bz-KP[dCha][Cha][dR]-OH)",24000 nM
3,"CN[C@@H](Cc1ccccc1)C(=O)N[C@@H](CCCCN)C(=O)N1CCC[C@H]1C(=O)N[C@H](CC1CCCCC1)C(=O)N[C@@H](Cc1ccccc1)C(=O)NCc1ccc(C(=O)O)cc1 [Example 177, (N-Methyl)Phenylalanyl-Lysyl-Prolyl-{(2R)-2-Amino-3-cyclohexylpropanoyl}-Phenylalanyl-N-(4-Carboxybenzyl)amide] (H-[NMeF]KP[dCha]F[4Amb]-OH)",38700 nM
4,"CN[C@@H](Cc1ccccc1)C(=O)N[C@@H](CCCCN)C(=O)N1CCC[C@H]1C(=O)N[C@H](CC1CCCCC1)C(=O)N[C@@H](Cc1ccccc1)C(=O)NCC1(c2ccccc2)CC1 [Example 100, (N-Methyl)Phenylalanyl-Lysyl-Prolyl-{(2R)-2-Amino-3-cyclohexylpropanoyl}-Phenylalanyl-N-{(1-Phenyl)cyclopropylmethyl}amide] (H-[NMeF]KP[dCha]F-X8)",91 nM
5,"CN[C@@H](Cc1ccccc1)C(=O)N[C@@H](CCCCN)C(=O)N1CCC[C@H]1C(=O)N[C@H](CC1CCCCC1)C(=O)N[C@@H](Cc1ccccc1)C(=O)NCCCNC(=N)N [Example 201, (N-Methyl)Phenylalanyl-Lysyl-Prolyl-{(2R)-2-Amino-3-cyclohexylpropanoyl}-Phenylalanyl-N-(3-Guanidinopropyl)amide] (H-[NMeF]KP[dCha]F-X3)",690 nM
6,"CN[C@@H](Cc1ccccc1)C(=O)N[C@@H](CCCCN)C(=O)N1CCC[C@H]1C(=O)N[C@H](CC1CCCCC1)C(=O)N[C@@H](CC1CCCCC1)CN(CCCCNC(=N)N)C(=O)Cc1ccccc1 [Example 78, N-(4-Guanidinobutyl)-N-[(N-Methyl)Phenylalanyl-Lysyl-Prolyl-{(2R)-2-Amino-3-cyclohexylpropanoyl}-{(2S)-2-Amino-3-cyclohexylpropyl}]-N-Phenylacetamide] (H-[NMeF]KP[dCha]-X10)",680 nM

# Same assay, conditions: 0.03-1 nM 125I-C5a, 2.5-25 μg/mL purified PMNL membrane fragments, filtration; read-out: Ki (In vitro C5a Receptor Binding Potency)
row,Structure (SMILES),Ki
1,"CN[C@@H](Cc1ccccc1)C(=O)N[C@@H](CCCCN)C(=O)N1CCC[C@H]1C(=O)N[C@H](CC1CCCCC1)C(=O)N[C@@H](CC1CCCCC1)C(=O)NCCCCCN [Example 30, (N-Methyl)Phenylalanyl-Lysyl-Prolyl-{(2R)-2-Amino-3-cyclohexylpropanoyl}-{(2S)-2-Amino-3-cyclohexylpropanoyl}-N-(5-Aminopentyl)amide] (H-[NMeF]KP[dCha][Cha]-{NH(CH2)5NH2})",2200 nM
2,CN[C@@H](Cc1ccccc1)C(=O)N[C@@H](CCCCN)C(=O)N1CCC[C@H]1C(=O)N[C@H](CC1CCCCC1)C(=O)N1CCN(Cc2ccccc2)CC1 [Example 117],110000 nM
3,"N=C(N)NCCC[C@@H](NC(=O)[C@H](CC1CCCCC1)NC(=O)[C@@H](CC1CCCCC1)NC(=O)[C@@H]1CCCN1C(=O)[C@H](CCCCN)NC(=O)C(Cc1ccccc1)C(=O)O)C(=O)O (mixture of isomers) [Example 149, {(R/S)-(2-Carboxyl)-3-phenylpropionyl}-Lysyl-Prolyl-{(2R)-2-Amino-3-cyclohexylpropanoyl}-{(2S)-2-Amino-3-cyclohexylpropanoyl}-DArginyl-OH]",22 nM
4,"CN[C@@H](Cc1ccccc1)C(=O)N[C@@H](CCCCN)C(=O)N1CCC[C@H]1C(=O)N[C@H](CC1CCCCC1)C(=O)N[C@@H](CC1CCCCC1)C(=O)NCCCNC(=N)N [Example 55, (N-Methyl)Phenylalanyl-Lysyl-Prolyl-{(2R)-2-Amino-3-cyclohexylpropanoyl}-{(2S)-2-Amino-3-cyclohexylpropanoyl}-N-(3-Guanidinopropyl)amide] (H-[NMeF]KP[dCha][Cha]-X3)",7 nM
5,"CN[C@@H](Cc1ccccc1)C(=O)N[C@@H](CCCCN)C(=O)N1CCC[C@H]1C(=O)N[C@H](CC1CCCCC1)C(=O)NC(CC1CCCCC1)C(=O)OCc1ccccc1 (stereo partly drawn) [Example 159, (N-Methyl)Phenylalanyl-Lysyl-Prolyl-{(2R)-2-Amino-3-cyclohexylpropanoyl}-{(2R/S)-2-Amino-3-cyclohexylpropanoyl}O-Benzyl] (H-[NMeF]KP[dCha][ξCha]-OBn)",980 nM
6,"CN[C@@H](Cc1ccccc1)C(=O)N[C@@H](CCCCN)C(=O)N1CCC[C@H]1C(=O)N[C@H](CCCNC(=N)N)C(=O)N[C@@H](Cc1ccccc1)C(=O)NCc1ccccn1 [Example 199, (N-Methyl)Phenylalanyl-Lysyl-Prolyl-DArginyl-Phenylalanyl-N-(2-Picolyl)amide] (H-[NMeF]KP[dR]F-{NHCH2(2-pyridyl)})",8400 nM
7,"CN[C@@H](Cc1ccccc1)C(=O)N[C@@H](CCCCN)C(=O)N1CCC[C@H]1C(=O)N[C@H](CC1CCCCC1)C(=O)N[C@@H](CC1CCCCC1)C(=O)NCCC#N [Example 223, (N-Methyl)Phenylalanyl-Lysyl-Prolyl-{(2R)-2-Amino-3-cyclohexylpropanoyl}-{(2S)-2-Amino-3-cyclohexylpropanoyl}-N-(2-Cyanoethyl)amide] (H-[NMeF]KP[dCha][Cha]-X1)",1200 nM
8,"CN[C@@H](Cc1ccccc1)C(=O)N[C@@H](CCCCN)C(=O)N1CCC[C@H]1C(=O)N[C@H](CC1CCCCC1)C(=O)N(CCCN)CCc1ccccc1 [Example 225, (N-Methyl)Phenylalanyl-Lysyl-Prolyl-{(2R)-2-Amino-3-cyclohexylpropanoyl}-N-3-Aminopropyl-N-2-Phenethylamide] (H-[NMeF]KP[dCha]-X4)",46000 nM
9,"N=C(N)NCCC[C@@H](NC(=O)[C@H](Cc1ccccc1)NC(=O)[C@@H](CC1CCCCC1)NC(=O)[C@@H]1CCCN1C(=O)[C@H](CCCCN)NC(=O)[C@@H](O)Cc1ccccc1)C(=O)O [Example 84, {(3S)-Phenyllactyl)-Lysyl-Prolyl-{(2R)-2-Amino-3-cyclohexylpropanoyl}-Phenylalanyl-DArginyl-OH] (H-[PhLac]KP[dCha]F[dR]-OH)",62 nM
